Test results taken from patent publication US20250197420A1, “MACROCYCLIC COMPOUNDS, COMPOSITIONS, AND METHODS OF USING THEREOF” (Sionna Therapeutics Inc., priority 2022, published 2025).

Key:
[1] = tested on: Primary human bronchial epithelial cells from a ΔF508 homozygous CF donor (CF-HBE cells); assay: TECC24 recording of CFTR-mediated transepithelial chloride transport, AUC fold over benchmark VX-809 @10 μM; assay type: cell-based; conditions: 48 hours incubation, AUC of forskolin-stimulated IEQ
Outline: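 CF-HBE cells on inserts were treated with compound for 48 h at 36.5 °C, then recorded in current-clamp with benzamil 10 μM, forskolin 10 μM, and finally CFTR inhibitor-172 20 μM in pH 7.4 Hepes saline. Equivalent Cl− current AUC between forskolin and inhibitor addition is expressed as a ratio to VX-809 AUC: A <3, B 3–6, C 6–20.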

[2] = target: T1, Purified recombinant NBD1 (Homo sapiens, UniProt P13569); assay: Aggregation analysis using differential static light scattering (DSLS): thermal stability of NBD1; assay type: binding; conditions: NBD1 0.2 mg/ml; Tagg of compound well minus average Tagg of DMSO control wells
T1 construct: Purified recombinant NBD1 was produced using previously described methods; made in house
Outline: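 Recombinant NBD1 at 0.2 mg/ml in Tris/NaCl/MgCl2 buffer with 2 mM ATP, 2 mM DTT, 1% glycerol, pH 7.6, was incubated with compound and heated at 1 °C/min to 70 °C while static light scattering was monitored. Tagg was taken from the curve inflection point and reported as ΔTagg relative to DMSO controls.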

T1 sequence (P13569 423-646 limits assumed): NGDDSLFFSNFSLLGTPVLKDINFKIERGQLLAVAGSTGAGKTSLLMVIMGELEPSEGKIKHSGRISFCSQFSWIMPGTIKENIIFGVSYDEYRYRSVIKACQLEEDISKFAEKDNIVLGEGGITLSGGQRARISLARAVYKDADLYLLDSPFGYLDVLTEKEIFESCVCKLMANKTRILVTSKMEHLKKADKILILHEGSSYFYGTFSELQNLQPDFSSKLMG

| Structure (SMILES) | TECC (test agent AUC divided by VX-809 AUC) [1] | DSLS (ΔTagg) [2] |
| --- | --- | --- |
| Cn1nc2nc1-c1cc(ccc1F)Oc1c(F)cc3[nH]ccc3c1COC(=O)NC(C)(C)CCCCC2c1cccc(CCC(=O)O)c1 (single isomer, unassigned) [Compound 97B, 3-[3-(23,29-difluoro-3,11,11-trimethyl-13-oxo-14,25-dioxa-3,4,12,20,31-pentazapentacyclo-[24.3.1.12,5.016,24.017,21]hentriaconta-1(30),2(31),4,16,18,21,23,26,28-nonaen-6-yl)phenyl]propanoic acid] | B (a value between 3 and 6 is marked “B”) | C (a value greater than 10 °C and less than or equal to 25 °C is marked “C”) |
| Cn1nc2nc1-c1cc(ccc1F)Oc1c(F)cc3[nH]ccc3c1CCNC(=O)OCC(C)(C)CC[C@@]2(C)c1cccc(CCC(=O)O)c1 (single isomer, unassigned) [Compound 98A] | C (a value between 6 and 20 is marked “C”) | C (a value greater than 10 °C and less than or equal to 25 °C is marked “C”) |
| Cn1nc2nc1-c1cc(ccc1F)Oc1c(F)cc3[nH]ccc3c1CCNC(=O)OCC(C)(C)CC[C@@]2(C)c1cccc(CCC(=O)O)c1 (single isomer, unassigned) [Compound 98B] | B (a value between 3 and 6 is marked “B”) | A (an ΔTagg value less than or equal to 5 °C is marked “A”) |
| Cn1nc2nc1-c1cc(ccc1F)Oc1c(F)cc3[nH]ccc3c1COC(=O)NC(C)(C)CCCC2(C)c1cccc(CCC(=O)O)c1 (single isomer, unassigned) [Compound 99A, 3-[3-(22,28-difluoro-3,6,10,10-tetramethyl-12-oxo-13,24-dioxa-3,4,11,19,30-pentazapentacyclo-[23.3.1.12,5.015,23.016,20]-triaconta-1(29),2(30),4,15,17,20,22,25,27-nonaen-6-yl)phenyl]propanoic acid] | B (a value between 3 and 6 is marked “B”) | C (a value greater than 10 °C and less than or equal to 25 °C is marked “C”) |
| Cn1nc2nc1-c1cc(ccc1F)Oc1c(F)cc3[nH]ccc3c1COC(=O)NC(C)(C)CCCC2(C)c1cccc(CCC(=O)O)c1 (single isomer, unassigned) [Compound 99B, 3-[3-(22,28-difluoro-3,6,10,10-tetramethyl-12-oxo-13,24-dioxa-3,4,11,19,30-pentazapentacyclo-[23.3.1.12,5.015,23.016,20]-triaconta-1(29),2(30),4,15,17,20,22,25,27-nonaen-6-yl)phenyl]propanoic acid] | B (a value between 3 and 6 is marked “B”) | A (an ΔTagg value less than or equal to 5 °C is marked “A”) |
| Cn1nc2nc1-c1cc(ccc1F)Oc1c(F)cc3[nH]ccc3c1COC(=O)NC(C)(C)COCCC2(C)c1cccc(CCC(=O)O)c1 (single isomer, unassigned) [Compound 100A, 3-[3-(23,29-difluoro-3,6,11,11-tetramethyl-13-oxo-9,14,25-trioxa-3,4,12,20,31-pentazapentacyclo-[24.3.1.12,5.016,24.017,21]hentriaconta-1(30),2(31),4,16,18,21,23,26,28-nonaen-6-yl)phenyl]propanoic acid] | C (a value between 6 and 20 is marked “C”) | C (a value greater than 10 °C and less than or equal to 25 °C is marked “C”) |
| Cn1nc2nc1-c1cc(ccc1F)Oc1c(F)cc3[nH]ccc3c1COC(=O)NC(C)(C)COCCC2(C)c1cccc(CCC(=O)O)c1 (single isomer, unassigned) [Compound 100B, 3-[3-(23,29-difluoro-3,6,11,11-tetramethyl-13-oxo-9,14,25-trioxa-3,4,12,20,31-pentazapentacyclo-[24.3.1.12,5.016,24.017,21]hentriaconta-1(30),2(31),4,16,18,21,23,26,28-nonaen-6-yl)phenyl]propanoic acid] | C (a value between 6 and 20 is marked “C”) | A (an ΔTagg value less than or equal to 5 °C is marked “A”) |
| CC(Cc1cccc(C2(C)CCCCC(C)(C)NC(=O)OCc3c(c(F)cc4[nH]ccc34)Oc3ccc(F)c(c3)-c3nc2nn3C)c1)C(=O)O (single isomer, unassigned) [Compound 101A, 3-[3-(23,29-difluoro-3,6,11,11-tetramethyl-13-oxo-14,25-dioxa-3,4,12,20,31-pentazapentacyclo[24.3.1.12,5.016,24.017,21]-hentriaconta-1(30),2(31),4,16,18,21,23,26,28-nonaen-6-yl)phenyl]-2-methyl-propanoic acid] | B (a value between 3 and 6 is marked “B”) | C (a value greater than 10 °C and less than or equal to 25 °C is marked “C”) |
| CC(Cc1cccc(C2(C)CCCCC(C)(C)NC(=O)OCc3c(c(F)cc4[nH]ccc34)Oc3ccc(F)c(c3)-c3nc2nn3C)c1)C(=O)O (single isomer, unassigned) [Compound 101B, 3-[3-(23,29-difluoro-3,6,11,11-tetramethyl-13-oxo-14,25-dioxa-3,4,12,20,31-pentazapentacyclo[24.3.1.12,5.016,24.017,21]-hentriaconta-1(30),2(31),4,16,18,21,23,26,28-nonaen-6-yl)phenyl]-2-methyl-propanoic acid] | A (a TECC value less than 3 is marked “A”) | A (an ΔTagg value less than or equal to 5 °C is marked “A”) |
| C[C@@H](Cc1cccc(C2(C)CCCC(C)(C)N(C)S(=O)(=O)CCc3c(c(F)cc4[nH]ccc34)Oc3ccc(F)c(c3)-c3nc2nn3C)c1)C(=O)O (single isomer, unassigned) [Compound 117A] | A (a TECC value less than 3 is marked “A”) | B (a value above 5 °C and less than or equal to 10 °C is marked “B”) |
| C[C@@H](Cc1cccc(C2(C)CCCC(C)(C)N(C)S(=O)(=O)CCc3c(c(F)cc4[nH]ccc34)Oc3ccc(F)c(c3)-c3nc2nn3C)c1)C(=O)O (single isomer, unassigned) [Compound 117B] | B (a value between 3 and 6 is marked “B”) | C (a value greater than 10 °C and less than or equal to 25 °C is marked “C”) |
| O=C(O)CCc1cccc(C2CCCCNC(=O)CCc3c(c(F)cc4[nH]ccc34)Oc3ccc(F)c(c3)-c3ncc2[nH]3)c1 (stereo not shown) [Compound 3, 3-[3-(22,28-Difluoro-12-oxo-24-oxa-3,11,19,30-tetrazapentacyclo-[23.3.1.12,5.015,23.016,20]triaconta-1(29),2,4,15,17,20,22,25,27-nonaen-6-yl)phenyl]-propanoic acid] | B (a value between 3 and 6 is marked “B”) | C (a value greater than 10 °C and less than or equal to 25 °C is marked “C”) |
| O=C(O)CCc1cccc(C2CCCCCCNC(=O)CCc3c(c(F)cc4[nH]ccc34)Oc3ccc(F)c(c3)-c3ncc2[nH]3)c1 (stereo not shown) [Compound 4, 3-[3-(24,30-Difluoro-14-oxo-26-oxa-3,13,21,32-tetrazapentacyclo-[25.3.1.12,5.017,25.018,22]dotriaconta-1(31),2,4,17,19,22,24,27,29-nonaen-6-yl)phenyl]propanoic acid] | B (a value between 3 and 6 is marked “B”) | C (a value greater than 10 °C and less than or equal to 25 °C is marked “C”) |
| O=C(O)CCc1cccc(C2CCCNC(=O)CCc3c(c(F)cc4[nH]ccc34)Oc3ccc(F)c(c3)-c3ncc2[nH]3)c1 (stereo not shown) [Compound 8, 3-[3-(21,27-Difluoro-11-oxo-23-oxa-3,10,18,29-tetrazapentacyclo[22.3.1.12,5.014,22.015,19]nonacosa-1(28),2,4,14,16,19,21,24,26-nonaen-6-yl)phenyl]propanoic acid] | A (a TECC value less than 3 is marked “A”) | C (a value greater than 10 °C and less than or equal to 25 °C is marked “C”) |
| CC1(c2cccc(CCC(=O)O)c2)CC(=O)NCCCCCc2c(c(F)cc3[nH]ccc23)Oc2ccc(F)c(c2)-c2ncc1[nH]2 (stereo not shown) [Compound 26, 3-[3-(22,28-Difluoro-6-methyl-8-oxo-24-oxa-3,9,19,30-tetrazapentacyclo[23.3.1.12,5.015,23.016,20]triaconta-1(29),2,4,15,17,20,22,25,27-nonaen-6-yl)phenyl]propanoic acid] | B (a value between 3 and 6 is marked “B”) | C (a value greater than 10 °C and less than or equal to 25 °C is marked “C”) |
| CC1(c2ccccc2)CC(=O)NCCCCCc2c(c(F)cc3[nH]ccc23)Oc2ccc(F)c(c2)-c2ncc1[nH]2 (stereo not shown) [Compound 27, 22,28-Difluoro-6-methyl-6-phenyl-24-oxa-3,9,19,30-tetrazapentacyclo[23.3.1.12,5.015,23.016,20]triaconta-1(29),2,4,15,17,20,22,25,27-nonaen-8-one] | A (a TECC value less than 3 is marked “A”) | A (an ΔTagg value less than or equal to 5 °C is marked “A”) |
| CN1CC(C)(C)CCCC(c2cccc(CCC(=O)O)c2F)c2cnc([nH]2)-c2cc(ccc2F)Oc2c(F)cc3[nH]ccc3c2CCC1=O (stereo not shown) [Compound 28, 3-[3-(23,29-Difluoro-10,10,12-trimethyl-13-oxo-25-oxa-3,12,20,31-tetrazapentacyclo[24.3.1.12,5.016,24.017,21]hentriaconta-1(30),2,4,16,18,21,23,26,28-nonaen-6-yl)-2-fluoro-phenyl]propanoic acid] | A (a TECC value less than 3 is marked “A”) | C (a value greater than 10 °C and less than or equal to 25 °C is marked “C”) |
